Among the data in the NIST ThermoML archive (doi:10.1016/j.jct.2018.01.003) are activity coefficient and mass density values, retold here.

± gives the expanded uncertainty stated by the source.

The nature of data set [1]: activity coefficient (dimensionless); of the first substance listed, at infinite dilution; xn = mol fraction of the nth substance listed. Particulars: 101.33 kPa, Liquid, Chromatography, x1 = 0.
The conditions of data set [2]: 101.33 kPa, Liquid, Vibrating tube method.

`CCCCCCCC` [octane] + CCCCCCCCCCCCCC[P+](CCCCCC)(CCCCCC)CCCCCC.N#CC(=C=[N-])C#N: the activity coefficient amounted to 2.35 ± 0.16 in data set [1] (328.15 K); 2.36 ± 0.16 in data set [1] (338.15 K); 2.37 ± 0.16 in data set [1] (348.15 K); 2.38 ± 0.16 in data set [1] (358.15 K); 2.39 ± 0.16 in data set [1] (368.15 K).

Take `CCCC(C)=O` [pentan-2-one] + CCCCCCCCCCCCCC[P+](CCCCCC)(CCCCCC)CCCCCC.N#CC(=C=[N-])C#N: the activity coefficient was 0.459 ± 0.036 in data set [1] (338.15 K), 0.477 ± 0.037 in data set [1] (348.15 K), 0.502 ± 0.038 in data set [1] (358.15 K) and 0.52 ± 0.039 in data set [1] (368.15 K).

In the case of `CCC(=O)CC` [pentan-3-one] + CCCCCCCCCCCCCC[P+](CCCCCC)(CCCCCC)CCCCCC.N#CC(=C=[N-])C#N, the activity coefficient in data set [1] (338.15 K) was found to be 0.451 ± 0.036; in data set [1] (348.15 K), 0.47 ± 0.037; in data set [1] (358.15 K), 0.494 ± 0.038; in data set [1] (368.15 K), 0.514 ± 0.038.

Regarding `CCCCC` [pentane] + CCCCCCCCCCCCCC[P+](CCCCCC)(CCCCCC)CCCCCC.N#CC(=C=[N-])C#N, the activity coefficient in data set [1] (328.15 K) came to 1.59 ± 0.11; in data set [1] (338.15 K), 1.62 ± 0.11; in data set [1] (348.15 K) it was 1.64 ± 0.11; in data set [1] (358.15 K), 1.67 ± 0.11; in data set [1] (368.15 K), 1.69 ± 0.11.

In the case of `CCCO` [propan-1-ol] + CCCCCCCCCCCCCC[P+](CCCCCC)(CCCCCC)CCCCCC.N#CC(=C=[N-])C#N, the activity coefficient turned out to be 0.426 ± 0.035 in data set [1] (328.15 K); 0.437 ± 0.035 in data set [1] (338.15 K); 0.447 ± 0.036 in data set [1] (348.15 K); 0.457 ± 0.036 in data set [1] (358.15 K); 0.465 ± 0.036 in data set [1] (368.15 K).

Consider `CC(C)O` [propan-2-ol] + CCCCCCCCCCCCCC[P+](CCCCCC)(CCCCCC)CCCCCC.N#CC(=C=[N-])C#N, for which the activity coefficient in data set [1] (328.15 K) was found to be 0.503 ± 0.038; in data set [1] (338.15 K), 0.507 ± 0.038; in data set [1] (348.15 K) it was 0.51 ± 0.038; in data set [1] (358.15 K), 0.514 ± 0.038; in data set [1] (368.15 K) it was 0.516 ± 0.038.

Turning to `c1ccncc1` [pyridine] + CCCCCCCCCCCCCC[P+](CCCCCC)(CCCCCC)CCCCCC.N#CC(=C=[N-])C#N, the activity coefficient turned out to be 0.401 ± 0.034 in data set [1] (338.15 K), 0.413 ± 0.034 in data set [1] (348.15 K), 0.425 ± 0.035 in data set [1] (358.15 K) and 0.438 ± 0.035 in data set [1] (368.15 K).

For the compound `C=Cc1ccccc1` [styrene] + CCCCCCCCCCCCCC[P+](CCCCCC)(CCCCCC)CCCCCC.N#CC(=C=[N-])C#N, the activity coefficient in data set [1] (328.15 K) was 0.496 ± 0.038; in data set [1] (338.15 K) it was 0.52 ± 0.039; in data set [1] (348.15 K), 0.544 ± 0.04; in data set [1] (358.15 K), 0.57 ± 0.041; in data set [1] (368.15 K), 0.593 ± 0.042.

For the compound `C1CCOC1` [tetrahydrofuran] + CCCCCCCCCCCCCC[P+](CCCCCC)(CCCCCC)CCCCCC.N#CC(=C=[N-])C#N, the activity coefficient in data set [1] (328.15 K) was 0.381 ± 0.033; in data set [1] (338.15 K), 0.4 ± 0.034; in data set [1] (348.15 K), 0.417 ± 0.035; in data set [1] (358.15 K), 0.436 ± 0.035; in data set [1] (368.15 K), 0.453 ± 0.036.

On to `c1ccsc1` [thiophene] + CCCCCCCCCCCCCC[P+](CCCCCC)(CCCCCC)CCCCCC.N#CC(=C=[N-])C#N, for which the activity coefficient in data set [1] (328.15 K) amounted to 0.41 ± 0.034; in data set [1] (338.15 K), 0.429 ± 0.035; in data set [1] (348.15 K), 0.445 ± 0.036; in data set [1] (358.15 K), 0.461 ± 0.036; in data set [1] (368.15 K), 0.478 ± 0.037.

Consider `Cc1ccccc1` [toluene] + CCCCCCCCCCCCCC[P+](CCCCCC)(CCCCCC)CCCCCC.N#CC(=C=[N-])C#N, for which the activity coefficient is 0.558 ± 0.04 in data set [1] (328.15 K); 0.585 ± 0.041 in data set [1] (338.15 K); 0.611 ± 0.043 in data set [1] (348.15 K); 0.635 ± 0.044 in data set [1] (358.15 K); 0.656 ± 0.045 in data set [1] (368.15 K).

Consider `CCCCCCCCCCCCCC[P+](CCCCCC)(CCCCCC)CCCCCC.N#CC(=C=[N-])C#N` [trihexyltetradecylphosphonium tricyanomethanide], for which the mass density is reported as 900.77 ± 3.7 kg/m3 in data set [2] (298.15 K); 894.91 ± 3.7 kg/m3 in data set [2] (308.15 K); 889.05 ± 3.7 kg/m3 in data set [2] (318.15 K); 883.23 ± 3.7 kg/m3 in data set [2] (328.15 K); 877.43 ± 3.7 kg/m3 in data set [2] (338.15 K); 871.66 ± 3.7 kg/m3 in data set [2] (348.15 K). Moreover, the mass density is given as 865.92 ± 3.6 kg/m3 in data set [2] (358.15 K) and 860.2 ± 3.6 kg/m3 in data set [2] (368.15 K).

Regarding `O` [water] + CCCCCCCCCCCCCC[P+](CCCCCC)(CCCCCC)CCCCCC.N#CC(=C=[N-])C#N, the activity coefficient in data set [1] (328.15 K) was found to be 1.92 ± 0.13; in data set [1] (338.15 K), 1.77 ± 0.12; in data set [1] (348.15 K) it was 1.65 ± 0.11; in data set [1] (358.15 K), 1.54 ± 0.1; in data set [1] (368.15 K), 1.44 ± 0.09.

Broadly, the mass density is mass per unit of volume.
